From patent publication US12422660B2, “Microscope for imaging samples within wells of multi-well plates hold by stage and beam homogenizer for homogenizing beam” (QUIVER HOLDINGS INC., priority 2020, dated 2025)
Entries after “also recorded” stand apart in the source; their conditions may differ.

Legend:
[1] = system: iPSC-derived excitatory cortical neurons (NGN2) with LOF mutation (knockout/KO); assay: Optopatch multi-dimensional analysis of disease phenotype reversal and side effects; format: cell-based, human; conditions: for cell behavior projected onto phenotype/side effect space: KO cells, 8 concentrations from 0.28 to 600 μM, increasing concentration; for reversal of functional phenotype (WT vs KO), radar plot: KO neurons, 30 days in culture
Source text: In compound screening, multidimensional data may be reduced to a few parameters that can be used to rank and select compounds to advance. In disease modeling, for example, one uses hiPSC-derived neurons from patients and healthy controls, and screens for compounds that induce the disease cells to behave like healthy cells. The dimensionality reduction is described in FIG. 27-FIG. 29.
FIG. 27-FIG. 29 show multi-dimensional analysis with iPSC-derived excitatory cortical neurons (NGN2), 30 days in culture.
FIG. 27 is Radar plot showing a select subset of parameters normalized to values for wildtype (WT) neurons. […] The difference between WT and KO traces is the functional phenotype.
FIG. 28 is a diagram illustrating phenotype reversal and “side effects.” In the ˜300-dimensional space of recorded parameters, only two of which are shown, WT wells are clustered and KO wells are clustered. The vector between these populations represents the phenotype (red). Drug effects (blue) are deconstructed into components along (phenotype reversal) and orthogonal to (side effects) the phenotype vector. An ideal drug would undo the effects of the mutation and move the well from the KO cloud to the WT cloud.
FIG. 29 is a plot showing many wells projected onto the phenotype/side effect space. WT and KO wells are well separated along the phenotype direction. Application of the two compounds (8 concentrations from 0.28 to 600 μM) from FIG. 27 have increasing effects on KO cell behavior as the concentration increases. […] The connected drug points are in order of increasing concentration, and the two lines are experimental replicates on two consecutive weeks of experiment.

[2] = system: hiPSC-derived motor neurons; assay: Optopatch intrinsic excitability and pharmacological response, before and after compound addition; format: cell-based, human; conditions: 1 μM, before vs after addition, blue light stimulus
Source text: Firefly image with overlay (colored regions) of hiPSC-derived motor neurons are identified by automated analysis.
Example voltage recordings from selected cells, and the blue stimulus used to evoke firing: steps, pulse trains, and ramps are shown. […]
FIG. 21 is a raster plot where each point is an identified action potential and each row is a neuron from a single FOV.
Analysis overview: FIGS. 19-26 show the automated analysis workflow for measurements of intrinsic excitability and pharmacological response in hiPSC-derived motor neurons. Neurons are interrogated with a stimulus protocol (blue) designed to probe a broad range of spiking behaviors. All pixels capturing fluorescence from one neuron co-vary in time following that cell's unique firing pattern (FIG. 20). The temporal covariance is used to generate a weight mask for each cell (colored regions in FIG. 19); masked pixels are averaged for each frame in the movie to calculate the voltage traces. Each FOV was recorded twice, before and after addition of potassium channel opener ML213. […] From the fluorescence-time traces, each action potential in the dataset is identified (FIG. 21), and firing rate (FIG. 22), spike shape parameters (FIG. 23) and relative timings (FIG. 24 & FIG. 25) are measured as a function of stimulus. […]

[3] = system: E18 rat hippocampal neurons; assay: Optopatch pharmacology and high-throughput validation on 96-well Firefly; format: cell-based; conditions: for firing rate: 1 μM, 96-well plate, alternating columns vs vehicle; for drug-induced change in neuronal spiking behavior: neurons cultured 14 days, vehicle normalized to 1
Experimental: Concentration response curves are readily measured with the Optopatch platform (FIG. 31). All compounds show large effect sizes and good repeatability on two independent plates. Each symbol represents>100 cells in one well. All the data shown were measured in a single day.
The system is also approaching readiness for high-throughput drug screening. To test system uniformity and repeatability, ML-213 is added to alternating columns in a 96-well plate (FIG. 32-FIG. 37). The change in spike rate during the ramp is readily visible in each well and is uniform across the plate (FIG. 34-35). Using one parameter, number of spikes during the ramp, the Z′ of 0.31 indicates a failed call in 1 of 73,000 wells, sufficient for screening tens of thousands of compounds for phenotypic screens in neurons. There was a small drift in time as wells were read out serially at room temperature (FIG. 36). Recent improvements in automation control software have reduced the scan time per FOV from 30 seconds to 10 seconds, which will reduce scan time artifacts. Furthermore, the microscope will have a 5× increased imaging area, reducing the number of FOVs per well to 1 and further increasing screening speed.
FIGS. 30 & 31 show pharmacology e.g., with E18 rat hippocampal neurons cultured 14 days.
FIG. 30 is radar plots showing the drug-induced change in neuronal spiking behavior along many dimensions, tabulated at right. For each parameter, the vehicle is normalized to 1 (green); drug effects in orange.
FIG. 32-FIG. 37 show high-throughput validation for screening with E18 rat hippocampal neurons cultured for 14 days.
The blue light stimulus is shown below.

SMILES	cell behavior projected onto phenotype/side effect space [1]	reversal of functional phenotype (WT vs KO), radar plot [1]	neuronal excitability / firing [2]	firing rate [3]	firing rate ([3]; listed as ML-213)	drug-induced change in neuronal spiking behavior [3]
Nc1ccncc1 [4-AP]	moves cell behavior toward and beyond WT behavior	substantially reversed the phenotype	–	–	–	–
Cc1cc(C)c(NC(=O)C2CC3CCC2C3)c(C)c1 (stereo not drawn) [ML213]	–	–	suppresses firing; also recorded: clear reduction in neuronal excitability	dramatically reduces firing rate in all wells tested	reduces firing	drive behavior in opposite directions
O=C1c2ccccc2C(Cc2ccncc2)(Cc2ccncc2)c2ccccc21 [XE-991]	–	–	–	–	–	drive behavior in opposite directions
Nc1nnc(-c2cccc(Cl)c2Cl)c(N)n1 [lamotrigine]	moves behavior away from both WT and KO	perturbed behavior but did not reverse the phenotype	–	–	–	–
